{"source": "patent US5998596A", "about": "“Inhibition of protein kinase activity by aptameric action of oligonucleotides” (The United States of America as represented by the …)", "key": {"[1]": {"tested_on": "Platelet derived growth factor receptor (PDGFR)", "assay": "PDGFR autophosphorylation immune complex kinase assay", "assay_type": "biochemical", "excerpt": "(§1) The p210^bcr-abl kinase, src kinase and cdc-2 kinase were immunoprecipitated from K562 cells. The p145^abl kinase was immunoprecipitated from PC3M cells, PDGF receptor kinase from 3T3 cells, and EGF receptor kinase from A431 cells. MAP kinase was utilized as a pure protein and lck kinase was immunoprecipitated from peripheral blood lymphocytes of a normal volunteer.\n(§2) Epidermal growth factor receptor (EGFR) was immunoprecipitated with 10 ,g anti-EGFR antibody (clone LA1) and human recombinant epidermal growth factor (both from Upstate Biotechnology Inc., Lake Placid, N.Y.). The assay was performed as described (17) but without removing the EGFR from the protein A-antibody solid support. Instead, epidermal growth factor, at a final concentration of 100 nM, was added to the kinase reaction mixture. Platelet derived growth factor receptor (DGFR) was immunoprecipitated with anti-human type A/type B PDGFR antibody (Upstate Biotechnology Inc.) and immune complex kinase assays performed as referenced (18) except that protein A-Sepharose coated with rabbit anti-mouse immunoglobulin was used instead of formalin-fixed Staphylococcus aureus to bind PDGFR-antibody conjugates. C-src was immunoprecipitated with anti-v-src antibody (Ab-1; Oncogene Science) and assayed as previously described (19) with the addition of enolase as exogenous substrate. […]"}, "[2]": {"tested_on": "Epidermal growth factor receptor (EGFR)", "assay": "EGFR autophosphorylation immunoprecipitation kinase assay", "assay_type": "biochemical", "excerpt": "as §1, §2"}, "[3]": {"tested_on": "src kinase", "assay": "Immunoprecipitation kinase assay of c-src with enolase as substrate", "assay_type": "biochemical, human", "excerpt": "as §1, §2"}, "[4]": {"tested_on": "p210^bcr-abl kinase", "assay": "Phosphorylation of exogenous substrate enolase by p210bcr-abl", "assay_type": "biochemical, human", "procedure": "Immunoprecipitation kinase assays of p210^bcr-abl p145^abl were performed as described, with modifications (15). Briefly, for p210^bcr-abl, 1 μg of anti-bcr antibody (clone 7C6, Oncogene Science, Uniondale, N.Y.) was added to lysates prepared from 0.5-1×10^6 K562 cells. For p145^abl, 1 μg of anti-c-abl antibody (clone 24-21), which binds to the C-terminal domain of p145^abl, was added to lysates prepared from 5×10^6 PC3M cells. After incubating 1 hour at 4° C., complexes were precipitated by incubating with protein A-Sepharose coated with rabbit anti-mouse immunoglobulin (Cappel Research Products, Durham, N.C.) for 30 minutes. The complexes were then washed as follows: ABL lysis buffer×2, PBS×1, and ABL assay buffer×1 (24 mM imidazole, pH 7.2, 1 mg/ml bovine serum albumin, and 10 mM MnCl). For p145^abl assays ABL assay buffer contained 20 mM MnCl. To access the activity of p210^bcr-abl on substrate phosphorylation, acid inactivated enolase (Sigma Chemical Co., St. Louis, Mo.) was added as described (15).\nODNs were added to kinase reaction buffers not more than 5 minutes prior to the addition of ATP. […]\nP210^bcr-abl from K562 cells was immunoprecipitated and kinase assays performed in the presence or absence of 1 μM BCR-AS with varying amounts of enolase present. […] Note that inhibition of autophosphorylation can be readily seen in the absence of enolase (see lanes 5 and 10)."}, "[5]": {"conditions": "Cerenkov counting of excised gel slices"}, "[6]": {"conditions": "ODN1 concentrations greater than 2 logs above the Ki for p210^bcr-abl"}}}
{"substance": "5'-GTCCACCATGGCGCGGCCGGC-3' [ODN1] (phosphorothioate caps, further chemistry not given here) [21mer ODN complementary to nucleotides -12 to +9 of the p210bcr-abl mRNA, phosphorothioate capped unless otherwise specified]", "values": [{"measurement": "sensitivity of PDGF receptor relative to p145^abl or p210^bcr-abl", "setting": "[1]", "result": "almost a log less sensitive"}, {"measurement": "IC50", "setting": "[1]; Cerenkov counting of excised gel slices, mean ± SD", "result": "4.4 ± 2.3", "unit": "µM"}, {"measurement": "IC50", "setting": "[2]; [5]", "result": "> 100", "unit": "µM"}, {"measurement": "inhibition of EGF receptor (in words)", "setting": "[2]; [6]", "result": "not significantly inhibited"}, {"measurement": "IC50", "setting": "[3]; [5]", "result": "> 100", "unit": "µM"}, {"measurement": "inhibition of src (in words)", "setting": "[3]; [6]", "result": "not significantly inhibited"}, {"measurement": "phosphorylation of enolase by p210^bcr-abl", "setting": "[4]; 1 μM BCR-AS, varying amounts of enolase, three minute reaction", "result": "no effect"}, {"measurement": "inhibition of enolase phosphorylation by p210^bcr-abl", "setting": "[4]; ODN1 concentrations of up to 50 μM", "result": "no significant inhibition"}]}
